Where a name gives a salt, the structure may show the parent alone.
Key:
Type in all cases: cell-based
adenosine 1 receptor = molecular target: T1, adenosine 1 receptor (Homo sapiens, UniProt P30542); test: Agonist activity against adenosine 1 receptor (CHO cells, forskolin-enhanced cAMP/SPAP reporter); conditions: CHO cells transfected with human receptor; forskolin-enhanced cAMP via SPAP; mean of all the versions tested
T1 sequence (P30542 1-326): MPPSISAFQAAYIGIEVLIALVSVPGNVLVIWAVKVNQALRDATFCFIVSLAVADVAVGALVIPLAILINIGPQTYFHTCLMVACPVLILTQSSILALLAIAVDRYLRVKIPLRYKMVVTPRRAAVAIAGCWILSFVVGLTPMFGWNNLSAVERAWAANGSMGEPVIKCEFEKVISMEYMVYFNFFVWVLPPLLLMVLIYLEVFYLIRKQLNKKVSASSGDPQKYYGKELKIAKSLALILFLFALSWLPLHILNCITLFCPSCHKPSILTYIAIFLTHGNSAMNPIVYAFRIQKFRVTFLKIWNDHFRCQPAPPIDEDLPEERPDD
Experimental: (§1) (1) Agonist activity against adenosine 2a, adenosine 1 and adenosine 3 receptor subtypes.
(§2) The effect of test compounds was determined by their effects on basal levels of cAMP (A2a) or on forskolin-enhanced cAMP (A1 and A3) as reflected by changes in levels of SPAP.

adenosine 2a receptor = adenosine 2a receptor (Homo sapiens, UniProt P29274); test: Agonist activity against adenosine 2a receptor (CHO cells, cAMP/SPAP reporter); conditions: CHO cells transfected with human receptor; basal cAMP via SPAP; mean of all the versions tested
Experimental: as §1, §2

adenosine 3 receptor = molecular target: T2, adenosine 3 receptor (Homo sapiens, UniProt P0DMS8); test: Agonist activity against adenosine 3 receptor (CHO cells, forskolin-enhanced cAMP/SPAP reporter); conditions: CHO cells transfected with human receptor; forskolin-enhanced cAMP via SPAP; mean of all the versions tested
T2 sequence (P0DMS8 1-318): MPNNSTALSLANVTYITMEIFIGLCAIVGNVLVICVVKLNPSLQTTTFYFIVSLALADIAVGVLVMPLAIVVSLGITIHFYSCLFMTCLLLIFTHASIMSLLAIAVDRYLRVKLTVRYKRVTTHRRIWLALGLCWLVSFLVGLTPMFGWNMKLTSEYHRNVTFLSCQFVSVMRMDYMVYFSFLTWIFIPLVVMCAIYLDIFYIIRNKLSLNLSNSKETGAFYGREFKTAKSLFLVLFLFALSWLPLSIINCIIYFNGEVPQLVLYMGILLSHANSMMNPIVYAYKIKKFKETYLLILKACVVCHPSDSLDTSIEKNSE
Experimental: as §1, §2

adenosine 2a receptor, sequence (P29274 whole entry): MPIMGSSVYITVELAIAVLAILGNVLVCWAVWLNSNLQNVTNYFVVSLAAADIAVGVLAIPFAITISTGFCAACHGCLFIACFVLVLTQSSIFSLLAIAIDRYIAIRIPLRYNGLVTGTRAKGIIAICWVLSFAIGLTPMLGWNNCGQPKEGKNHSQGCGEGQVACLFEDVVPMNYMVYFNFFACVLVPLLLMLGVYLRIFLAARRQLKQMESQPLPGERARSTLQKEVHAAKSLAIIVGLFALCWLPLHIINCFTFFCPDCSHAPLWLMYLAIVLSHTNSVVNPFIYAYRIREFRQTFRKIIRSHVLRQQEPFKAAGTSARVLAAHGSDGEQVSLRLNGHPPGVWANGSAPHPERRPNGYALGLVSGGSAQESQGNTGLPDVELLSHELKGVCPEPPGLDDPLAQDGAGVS

A1 EC50 as a ratio of that of NECA (adenosine 1 receptor)	A2a EC50 as a ratio of that of NECA (adenosine 2a receptor)	A3 EC50 as a ratio of that of NECA (adenosine 3 receptor)	Structure (SMILES)
21.10	2.29	>295	CCn1nnc(C2OC(n3cnc4c(NC(CO)Cc5ccccc5)nc(NC5CCNC5)nc43)C(O)C2O)n1 [Example 62, (2R,3S,4R,5R)-2-(2-Ethyl-2H-tetrazol-5-yl)-5-[6-(1S-hydroxymethyl-2-phenyl-ethylamino)-2-(pyrrolidin-3R-ylamino)-purin-9-yl]-tetrahydro-furan-3,4-diol bis(Formate)]
21.30	2.54	>326	CC(C)n1nnc([C@H]2O[C@@H](n3cnc4c(N[C@H](CO)Cc5ccccc5)nc(N[C@H]5CCNC5)nc43)[C@H](O)[C@@H]2O)n1.O=CO.O=CO [Example 64, (2R,3R,4S,5R)-2-[6-(1S-Hydroxymethyl-2-phenyl-ethylamino)-2-(pyrrolidin-3S-ylamino)-purin-9-yl]-5-(2-isopropyl-2H-tetrazol-5-yl)-tetrahydro-furan-3,4-diol bis(Formate)]
61.50	2.46	>158	CCC(CC)Nc1nc(NC2CCN(Cc3ccccc3)C2)nc2c1ncn2C1OC(c2nnn(CC)n2)C(O)C1O.O=CO.O=CO [Example 65, (2R,3R,4S,5R)-2-[2-(1-Benzyl-pyrrolidin-3-ylamino)-6-(1-ethyl-propylamino)-purin-9-yl]-5-(2-ethyl-2H-tetrazol-5-yl)-tetrahydro-furan-3,4-diol bis(Formate)]
73.85	2.96	>326	CCC(CC)Nc1nc(NC2CCC(N)CC2)nc2c1ncn2C1OC(c2nnn(C(C)C)n2)C(O)C1O.O=CO.O=CO [Example 67, (2R,3R,4S,5R)-2-[2-(trans-4-Amino-cyclohexylamino)-6-(1-ethyl-propylamino)-purin-9-yl]-5-(2-isopropyl-2H-tetrazol-5-yl)-tetrahydro-furan-3,4-diol bis(Formate)]
515.30	6.60	>148	CCn1nnc(C2OC(n3cnc4c(NCCN5CCCCC5)nc(NC(CO)Cc5ccccc5)nc43)C(O)C2O)n1 [Example 69, (2R,3S,4R,5R)-2-(2-Ethyl-2H-tetrazol-5-yl)-5-[2-(1S-hydroxymethyl-2-phenyl-ethylamino)-6-(2-piperidin-1-yl-ethylamino)-purin-9-yl]-tetrahydro-furan-3,4-diol Formate]
14.78	1.99	>158	CCn1nnc(C2OC(n3cnc4c(NC5CCCC5)nc(NC(CO)Cc5ccccc5)nc43)C(O)C2O)n1 [Example 71, (2R,3R,4S,5R)-2-[6-Cyclopentylamino-2-(1S-hydroxymethyl-2-phenyl-ethylamino)-purin-9-yl]-5-(2-ethyl-2H-tetrazol-5-yl)-tetrahydro-furan-3,4-diol Formate]
848.50	6.48	>158	CCn1nnc(C2OC(n3cnc4c(NCCC5CCCCC5)nc(NC5CCNC5)nc43)C(O)C2O)n1 [Example 72, (2R,3R,4S,5R)-2-[6-(2-Cyclohexyl-ethylamino)-2-(pyrrolidin-3R-ylamino)-purin-9-yl]-5-(2-ethyl-2H-tetrazol-5-yl)-tetrahydro-furan-3,4-diol Diformate]
818.40	5.75	>171	CCn1nnc(C2OC(n3cnc4c(NCCC5CCCCC5)nc(NC5CCNC5)nc43)C(O)C2O)n1 [Example 73, (2R,3R,4S,5R)-2-[6-(2-Cyclohexyl-ethylamino)-2-(pyrrolidin-3S-ylamino)-purin-9-yl]-5-(2-ethyl-2H-tetrazol-5-yl)-tetrahydro-furan-3,4-diol bis(Formate)]
201.70	2.79	>171	CCn1nnc(C2OC(n3cnc4c(NCCc5ccccc5)nc(NC5CCNC5)nc43)C(O)C2O)n1 [Example 74, (2R,3S,4R,5R)-2-(2-Ethyl-2H-tetrazol-5-yl)-5-[6-phenethylamino-2-(pyrrolidin-3R-ylamino)-purin-9-yl]-tetrahydro-furan-3,4-diol bis(Formate)]

Continued, compound first:

Structure (SMILES)	A1 EC50 as a ratio of that of NECA (adenosine 1 receptor)	A2a EC50 as a ratio of that of NECA (adenosine 2a receptor)	A3 EC50 as a ratio of that of NECA (adenosine 3 receptor)
CC(C)n1nnc([C@H]2O[C@@H](n3cnc4c(NCCC(C)(C)C)nc(NCCc5cn(C)cn5)nc43)[C@H](O)[C@@H]2O)n1.O=CO [Example 56, (2R,3R,4S,5R)-2-{6-(3,3-Dimethyl-butylamino)-2-[2-(1-methyl-1H-imidazol-4-yl)-ethylamino]-purin-9-yl}-5-(2-isopropyl-2H-tetrazol-5-yl)-tetrahydro-furan-3,4-diol Formate]	570.90	4.90	>297
CC(C)n1nnc([C@H]2O[C@@H](n3cnc4c(NCCc5ccccc5)nc(NCCc5cn(C)cn5)nc43)[C@H](O)[C@@H]2O)n1.O=CO [Example 57, (2R,3S,4R,5R)-2-(2-Isopropyl-2H-tetrazol-5-yl)-5-{2-[2-(1-methyl-1H-imidazol-4-yl)-ethylamino]-6-phenethylamino-purin-9-yl}-tetrahydro-furan-3,4-diol Formate]	376.10	2.42	>362
CC(C)n1nnc([C@H]2O[C@@H](n3cnc4c(NCc5ccccc5)nc(NCCc5cn(C)cn5)nc43)[C@H](O)[C@@H]2O)n1.O=CO [Example 58, (2R,3R,4S,5R)-2-{6-Benzylamino-2-[2-(1-methyl-1H-imidazol-4-yl)-ethylamino]-purin-9-yl}-5-(2-isopropyl-2H-tetrazol-5-yl)-tetrahydro-furan-3,4-diol Formate]	1119.00	6.07	>515
CCC(CC)Nc1nc(NCCc2cn(C)cn2)nc2c1ncn2[C@@H]1O[C@H](c2nnn(C(C)C)n2)[C@@H](O)[C@H]1O.O=CO [Example 59, (2R,3R,4S,5R)-2-{6-(1-Ethyl-propylamino)-2-[2-(1-methyl-1H-imidazol-4-yl)-ethylamino]-purin-9-yl}-5-(2-isopropyl-2H-tetrazol-5-yl)-tetrahydro-furan-3,4-diol Formate]	92.30	2.34	>749
CCn1nnc([C@H]2O[C@@H](n3cnc4c(NCCC(C)(C)C)nc(N[C@@H]5CCC[C@H]5O)nc43)[C@H](O)[C@@H]2O)n1.O=C(O)C(F)(F)F.O=C(O)C(F)(F)F [Example 60]	69.10	4.24	>385
CCn1nnc(C2OC(n3cnc4c(NCc5ccccc5)nc(NC(CO)Cc5ccccc5)nc43)C(O)C2O)n1 [Example 61, (2R,3R,4S,5R)-2-[6-Benzylamino-2-(1S-hydroxymethyl-2-phenyl-ethylamino)-purin-9-yl]-5-(2-ethyl-2H-tetrazol-5-yl)-tetrahydro-furan-3,4-diol Formate]	323.00	9.20	>150
CC(C)n1nnc([C@H]2O[C@@H](n3cnc4c(N[C@H](CO)Cc5ccccc5)nc(NCCc5ccccn5)nc43)[C@H](O)[C@@H]2O)n1.O=CO [Example 63, (2R,3R,4S,5R)-2-[6-(1S-Hydroxymethyl-2-phenyl-ethylamino)-2-(2-pyridin-2-yl-ethylamino)-purin-9-yl]-5-(2-isopropyl-2H-tetrazol-5-yl)-tetrahydro-furan-3,4-diol Formate]	55.60	5.86	>326
CCC(CC)Nc1nc(NCCN2CCCCC2)nc2c1ncn2C1OC(c2nnn(C(C)C)n2)C(O)C1O.O=CO.O=CO [Example 68, (2R,3R,4S,5R)-2-[6-(1-Ethyl-propylamino)-2-(2-piperidin-1-yl-ethylamino)-purin-9-yl]-5-(2-isopropyl-2H-tetrazol-5-yl)-tetrahydro-furan-3,4-diol bis(Formate)]	56.20	3.50	>331
CCC(CC)Nc1nc(NCCN2CCOCC2)nc2c1ncn2C1OC(c2nnn(C(C)C)n2)C(O)C1O.O=CO.O=CO [Example 70, (2R,3R,4S,5R)-2-[6-(1-Ethyl-propylamino)-2-(2-morpholin-4-yl-ethylamino)-purin-9-yl]-5-(2-isopropyl-2H-tetrazol-5-yl)-tetrahydro-furan-3,4-diol Diformate]	30.55	7.24	>405
